# According to patent US20220153734A1, “Pyrazolopyridine Compounds For IRE1 Inhibition” (Optikira, LLC, priority 2019, published 2022):
# Tests used:
# [1] = tested on: ARPE-19 cells stably expressing XBP1 (a.a. 1-376); assay: Cellular XBP1 splicing assay (NanoLuc luciferase, thapsigargin); format: cell-based; conditions: thapsigargin 150 nM
# Description: Cellular XBP1 Splicing Assay
# ARPE-19 cells stably expressing XBP1 (a.a. 1-376) with nano-luciferase gene sequence linked so it is in frame when XBP1 is spliced, were cultured in F12 media, 10% FBS, 0.044% sodium bicarbonate, 150 μg/ml hygromycin B and seeded for assays at 5,000 cells in 384 well plates in culture media without hygromycin B and incubated at 37° C./5% CO2. After overnight incubation test compounds were added to the cell plate in a 10-point ½ log dilution series in duplicate (final DMSO concentration 0.117%). After further incubation of 30 minutes thapsigargin was added (final concentration 150 nM) and then another 4 hour incubation. A NanoLuc luciferase assay (Promega) was used according to the manufacturer's instructions to detect the luciferase and luminescence measured on a luminometer (EnVision, PerkinElmer). IC50 values calculated by fitting a sigmoidal curve to percent inhibition of control of compound concentration.
# [2] = target: T1, IRE1α (Homo sapiens, UniProt O75460); assay: Biochemical assay: inhibition of RNase activity of IRE1α; conditions: enzyme 0.325 nM, substrate 100 nM, 20 minutes
# T1 construct: purchased Signal Chem E31-11G
# Description: Biochemical Assay: Inhibition of RNase Activity of IRE1α
# The RNase reactions were performed in 384 well black ProxiPlate-384 Plus plates (PERKIN Elmer) using 50 mM Tris assay buffer with 0.5 mM MgCl2, 10 mM KCl, 0.03% Tween, 2 mM DTT and 1% DMSO. Test compounds were prepared on the day of assay and dispensed using D300 digital dispenser as a 10-point ½ log dilution series in duplicate, normalized to a final DMSO concentration of […]. Test compounds were pre-incubated for 30 min at room temperature with IRE1α kinase (E31-11G from Signal Chem) in 2.5 μL of assay buffer. Then 2.5 μl of assay buffer containing substrate (5′ Alexa Fluor 647-rCrArU rGrUrC rCrGrC rArGrC rGrCrArUrG-Iowa Black RQ quencher 3′) added, giving a final concentration of enzyme of 0.325 nM and of substrate of 100 nM. After 20 minutes incubation at room temperature the reactions were stopped by added 5 μL of 5M urea, incubated at room temperature for 10 minutes and fluorescence measured on a plate reader (EnVision, PerkinElmer). IC50 values calculated by fitting a sigmoidal curve to percent inhibition of control versus compound concentration.
# T1 sequence (O75460 468-977 limits assumed): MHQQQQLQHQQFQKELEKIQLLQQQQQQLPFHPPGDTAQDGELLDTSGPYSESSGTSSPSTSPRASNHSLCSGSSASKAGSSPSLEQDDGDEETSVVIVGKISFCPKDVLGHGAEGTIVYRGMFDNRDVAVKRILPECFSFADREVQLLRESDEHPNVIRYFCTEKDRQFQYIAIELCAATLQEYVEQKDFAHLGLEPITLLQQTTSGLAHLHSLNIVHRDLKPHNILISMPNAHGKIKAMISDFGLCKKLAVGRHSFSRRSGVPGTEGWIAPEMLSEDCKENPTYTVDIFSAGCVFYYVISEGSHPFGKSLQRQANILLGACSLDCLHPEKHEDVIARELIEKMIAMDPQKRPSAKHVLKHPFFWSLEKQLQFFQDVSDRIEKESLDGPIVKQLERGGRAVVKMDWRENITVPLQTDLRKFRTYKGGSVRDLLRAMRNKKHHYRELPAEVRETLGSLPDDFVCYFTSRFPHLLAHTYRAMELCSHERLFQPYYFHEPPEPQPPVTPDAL
SMILES,IC50 ([1]; 4 hour) [nM],IC50 [2] [nM],"IC50 ([1]; Homo sapiens, ARPE-19, 4 h) [nM]"
"CCn1nc(-c2ccc(NS(=O)(=O)c3ccccc3F)c(F)c2)c2c(N)ncc(C3=CCC(NC4COC4)CC3)c21 (single isomer, unassigned) [Compound B33, N-(4-(4-amino-1-ethyl-7-(4-(oxetan-3-ylamino)cyclohex-1-en-1-yl)-1H-pyrazolo[4,3-c]pyridin-3-yl)-2-fluorophenyl)-2-fluorobenzenesulfonamide]",100,60,
"CCn1nc(-c2ccc(NS(=O)(=O)c3ccccc3F)c(F)c2)c2c(N)ncc(C3=CCC(NC4COC4)CC3)c21 (single isomer, unassigned) [Compound B34, N-(4-(4-amino-1-ethyl-7-(4-(oxetan-3-ylamino)cyclohex-1-en-1-yl)-1H-pyrazolo[4,3-c]pyridin-3-yl)-2-fluorophenyl)-2-fluorobenzenesulfonamide]",400,100,
"CCn1nc(-c2ccc(NS(=O)(=O)c3cc(C)ccc3F)c(F)c2)c2c(N)ncc(C3=CCC(NC4COC4)CC3)c21 (single isomer, unassigned) [Compound B35, N-(4-(4-amino-1-ethyl-7-(4-(oxetan-3-ylamino)cyclohex-1-en-1-yl)-1H-pyrazolo[4,3-c]pyridin-3-yl)-2-fluorophenyl)-2-fluoro-5-methylbenzenesulfonamide]",52,14,
"CCn1nc(-c2ccc(NS(=O)(=O)c3cc(C)ccc3F)c(F)c2)c2c(N)ncc(C3=CCC(NC4COC4)CC3)c21 (single isomer, unassigned) [Compound B36, N-(4-(4-amino-1-ethyl-7-(4-(oxetan-3-ylamino)cyclohex-1-en-1-yl)-1H-pyrazolo[4,3-c]pyridin-3-yl)-2-fluorophenyl)-2-fluoro-5-methylbenzenesulfonamide]",210,51,
"CCn1nc(-c2ccc(NS(=O)(=O)c3cc(Cl)ccc3F)c(F)c2)c2c(N)ncc(C3=CCC(NC4COC4)CC3)c21 (single isomer, unassigned) [Compound B38, N-(4-(4-amino-1-ethyl-7-(4-(oxetan-3-ylamino)cyclohex-1-en-1-yl)-1H-pyrazolo[4,3-c]pyridin-3-yl)-2-fluorophenyl)-5-chloro-2-fluorobenzenesulfonamide]",97,5.6,
"CC(CF)NC1CC=C(c2cnc(N)c3c(-c4ccc(NS(=O)(=O)c5ccccc5Cl)c(F)c4)nn(C(C)C)c23)CC1 (single isomer, unassigned) [Compound B40, N-(4-(4-amino-7-(4-((1-fluoropropan-2-yl)amino)cyclohex-1-en-1-yl)-1-isopropyl-1H-pyrazolo[4,3-c]pyridin-3-yl)-2-fluorophenyl)-2-chlorobenzenesulfonamide]",67,14,
"CC(CF)NC1CC=C(c2cnc(N)c3c(-c4ccc(NS(=O)(=O)c5ccccc5Cl)c(F)c4)nn(C(C)C)c23)CC1 (single isomer, unassigned) [Compound B41, N-(4-(4-amino-7-(4-((1-fluoropropan-2-yl)amino)cyclohex-1-en-1-yl)-1-isopropyl-1H-pyrazolo[4,3-c]pyridin-3-yl)-2-fluorophenyl)-2-chlorobenzenesulfonamide]",10,6.1,
"CC(F)CNC1CC=C(c2cnc(N)c3c(-c4ccc(NS(=O)(=O)Cc5ccccc5Cl)c(F)c4)nn(C(C)C)c23)CC1 (single isomer, unassigned) [Compound B42, N-(4-(4-amino-7-(4-((2-fluoropropyl)amino)cyclohex-1-en-1-yl)-1-isopropyl-1H-pyrazolo[4,3-c]pyridin-3-yl)-2-fluorophenyl)-1-(2-chlorophenyl)methanesulfonamide]",18,1.7,
"CC(F)CNC1CC=C(c2cnc(N)c3c(-c4ccc(NS(=O)(=O)Cc5ccccc5Cl)c(F)c4)nn(C(C)C)c23)CC1 (single isomer, unassigned) [Compound B43, N-(4-(4-amino-7-(4-((2-fluoropropyl)amino)cyclohex-1-en-1-yl)-1-isopropyl-1H-pyrazolo[4,3-c]pyridin-3-yl)-2-fluorophenyl)-1-(2-chlorophenyl)methanesulfonamide]",5.1,0.5,
"CC(CF)NC1CC=C(c2cnc(N)c3c(-c4ccc(NS(=O)(=O)Cc5ccccc5Cl)c(F)c4)nn(C(C)C)c23)CC1 (single isomer, unassigned) [Compound B44, N-(4-(4-amino-7-(4-((1-fluoropropan-2-yl)amino)cyclohex-1-en-1-yl)-1-isopropyl-1H-pyrazolo[4,3-c]pyridin-3-yl)-2-fluorophenyl)-1-(2-chlorophenyl)methanesulfonamide]",10,1.6,
"CC(CF)NC1CC=C(c2cnc(N)c3c(-c4ccc(NS(=O)(=O)Cc5ccccc5Cl)c(F)c4)nn(C(C)C)c23)CC1 (single isomer, unassigned) [Compound B45, N-(4-(4-amino-7-(4-((1-fluoropropan-2-yl)amino)cyclohex-1-en-1-yl)-14sopropyl-1H-pyrazolo[4,3-c]pyridin-3-yl)-2-fluorophenyl)-1-(2-chlorophenyl)methanesulfonamide]",47,3.4,
"CC(F)CNC1CC=C(c2cnc(N)c3c(-c4ccc(NS(=O)(=O)c5ccccc5Cl)c(F)c4)nn(C(C)C)c23)CC1 (single isomer, unassigned) [Compound B46, N-(4-(4-amino-7-(4-((2-fluoropropyl)amino)cyclohex-1-en-1-yl)-1-isopropyl-1H-pyrazolo[4,3-c]pyridin-3-yl)-2-fluorophenyl)-2-chlorobenzenesulfonamide]",,4.7,22
"CC(F)CNC1CC=C(c2cnc(N)c3c(-c4ccc(NS(=O)(=O)c5ccccc5Cl)c(F)c4)nn(C(C)C)c23)CC1 (single isomer, unassigned) [Compound B47, N-(4-(4-amino-7-(4-((2-fluoropropyl)amino)cyclohex-1-en-1-yl)-1-isopropyl-1H-pyrazolo[4,3-c]pyridin-3-yl)-2-fluorophenyl)-2-chlorobenzenesulfonamide]",17,4.5,
"CC(C)n1nc(-c2ccc(NS(=O)(=O)Cc3ccccc3Cl)c(F)c2)c2c(N)ncc(C3=CCC(NC4CC(F)(F)C4)CC3)c21 (single isomer, unassigned) [Compound B48, N-(4-(4-amino-7-(4-((3,3-difluorocyclobutyl)amino)cyclohex-1-en-1-yl)-1-isopropyl-1H-pyrazolo[4,3-c]pyridin-3-yl)-2-fluorophenyl)-1-(2-chlorophenyl)methanesulfonamide]",13,1.3,
"CC(C)n1nc(-c2ccc(NS(=O)(=O)Cc3ccccc3Cl)c(F)c2)c2c(N)ncc(C3=CCC(NC4CC(F)(F)C4)CC3)c21 (single isomer, unassigned) [Compound B49, N-(4-(4-amino-7-(4-((3,3-difluorocyclobutyl)amino)cyclohex-1-en-1-yl)-1-isopropyl-1H-pyrazolo[4,3-c]pyridin-3-yl)-2-fluorophenyl)-1-(2-chlorophenyl)methanesulfonamide]",64,4.1,
"CC(C)n1nc(-c2ccc(NS(=O)(=O)c3ccccc3Cl)c(F)c2)c2c(N)ncc(C3=CCC(NC4CC(F)(F)C4)CC3)c21 (single isomer, unassigned) [Compound B50]",25,5,
"CC(C)n1nc(-c2ccc(NS(=O)(=O)c3ccccc3Cl)c(F)c2)c2c(N)ncc(C3=CCC(NC4CC(F)(F)C4)CC3)c21 (single isomer, unassigned) [Compound B51]",190,31,
"COCCNC1CC=C(c2cnc(N)c3c(-c4ccc(NS(=O)(=O)c5ccccc5Cl)c(F)c4)nn(C(C)C)c23)CC1 (single isomer, unassigned) [Compound B52, N-(4-(4-amino-1-isopropyl-7-(4-((2-methoxyethyl)amino)cyclohex-1-en-1-yl)-1H-pyrazolo[4,3-c]pyridin-3-yl)-2-fluorophenyl)-2-chlorobenzenesulfonamide]",9.8,7.8,
"COCCNC1CC=C(c2cnc(N)c3c(-c4ccc(NS(=O)(=O)c5ccccc5Cl)c(F)c4)nn(C(C)C)c23)CC1 (single isomer, unassigned) [Compound B53, N-(4-(4-amino-1-isopropyl-7-(4-((2-methoxyethyl)amino)cyclohex-1-en-1-yl)-1H-pyrazolo[4,3-c]pyridin-3-yl)-2-fluorophenyl)-2-chlorobenzenesulfonamide]",70,17,
